# Test results reported in article PMC7198493 (Nature Communications, 2020).
# Substitutions are numbered along the chain they refer to.
# Columns and labels:
# Assay type in all cases: binding
# [1] = molecular target: T1, olfactory marker protein (OMP) (Mus musculus, UniProt Q64288, G126E); test: BRET from mutant Rluc-OMP to 8NBD-cAMP
# T1 construct: Rluc-OMP fusion, G126E mutant
# T1 sequence (Q64288 2-163 G126E): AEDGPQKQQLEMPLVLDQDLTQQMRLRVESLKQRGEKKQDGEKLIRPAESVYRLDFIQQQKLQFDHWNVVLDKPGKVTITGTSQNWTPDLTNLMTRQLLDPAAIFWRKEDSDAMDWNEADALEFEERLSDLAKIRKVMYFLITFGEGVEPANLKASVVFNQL
# [2] = molecular target: T2, olfactory marker protein (OMP) (Mus musculus, UniProt Q64288); test: BRET from Rluc-OMP to fluorescent 8NBD-cAMP, dose-response (EC50 taken as apparent Kd)
# T2 construct: Rluc-OMP fusion, wild type
# T2 sequence (Q64288 2-163): T1 sequence (Q64288 2-163 G126E) with E125G
# [3] = molecular target: T2, olfactory marker protein (OMP); test: competitive BRET displacement of 8NBD-cAMP from Rluc-OMP in HEK293T lysate
Kd [2],IC50 [3],Structure (SMILES),BRET from mutant Rluc-OMP to 8NBD-cAMP [1]
~1.9 µM,,Nc1ncnc2c1nc(SCCNc1ccc([N+](=O)[O-])c3nonc13)n2[C@@H]1O[C@@H]2COP(=O)(O)O[C@H]2[C@H]1O [8NBD-cAMP],"pocket A-mutated Rluc-OMP^G126E retained the low-affinity interaction, whereas the pocket B mutants lost their interaction with 8NBD-cAMP"
,11 µM,Nc1nc2c(ncn2[C@@H]2O[C@@H]3COP(=O)(O)O[C@H]3[C@H]2O)c(=O)[nH]1 [cGMP],
